Here are results for 13 compounds from US20220334133A1, “METHODS AND COMPOUNDS MODIFYING MITOCHONDRIAL FUNCTION” (The Board of Trusteesof the Leland Stanford Junior …, priority 2019, published 2022).

Structures are written as SMILES. Where a name gives a salt, the structure may show the parent alone.

In the first data set the test system is Miro1. Nature of the data set: High-throughput screening assay for Miro1 reduction after FCCP (immunostaining, 384-well). The class given is cell-based, human. To be noted: Table 1A hits; 10 μM tested; PD patient fibroblasts, following FCCP treatment (20 μM, 14 hr). Here is the method: Human dermal primary fibroblasts isolated from a PD patient (ND33424) and a healthy control (ND36091) were cultured in cell media DMEM (ThermoFisher, 11995-065) supplemented with 10% fetal bovine serum (Gemini Bio-Products, 900-108, heat-inactivated), 1×Anti Anti (ThermoFisher, 15240096), and 1×GlutaMax (ThermoFisher, 35050061) maintained in a 37° C., 5% CO2 incubator with humidified atmosphere.
Fibroblast cells were plated onto clear-bottomed/black-walled 384-well plates (EK-30091, E&K Scientific, Santa Clara, Calif.) at 2000 cells/well with Matrix Wellmate dispenser (Thermo Scientific, Sunnyvale, Calif.) and plates were incubated at 37° C., 5% CO2 for 24 hrs. Next, chemical library compounds at defined concentrations, were added using fully automated liquid handling system Caliper Life Sciences Staccato system with a Twister II robot and a Sciclone ALH3000 (Caliper Life Sciences, Alameda, Calif. USA) integrated with a V&P Scientific pin tool and plates were incubated at 37° C./5% CO2 for 10 hrs. Then, 20 μM of FCCP (Carbonyl cyanide 4-(trifluoromethoxy)phenylhydrazone, Sigma-Aldrich, C2920) in cell media was added to defined wells and plates were incubated at 37° C., 5% CO2 for another 14 hr. Cells were fixed with ice-cold 90% methanol (Fisher, 482332) for 20 min at −20° C., incubated with blocking buffer (10% Normal Goat Serum (NGS) (ThermoFisher, 50062Z), 0.5% BSA (ThermoFisher, BP1600), 0.2% Triton X-100 (ThermoFisher, T8787) at room temperature (RT) for 15 min, and incubated with anti-Miro1 solution (Sigma-Aldrich, HPA0101687) at 1:100 in blocking buffer O/N at 4° C. Samples were washed with lx PBS (ThermoFisher, 10010-049) using a Plate Washer multivalve (Bio-Tek, ELx405UV), incubated with goat anti-Rabbit IgG (H+L) Cross-Adsorbed, Alexa Fluor 488 (ThermoFisher, A11008) at 1:500 in blocking buffer at 25° C. for 2 hrs and washed again with lx PBS, finally 1.0 μg/mL DAPI (ThermoFisher, D1306) in 1×PBS was added and plates were sealed using PlateLoc (Velocity11, 01867.001). All liquids were dispensed using the Multidrop 384 (Titertek, 5840200) unless otherwise stated. Fluorescent signals in plates were automatically imaged with ImageXpress Micro (Molecular Devices, IXMicro) and data were analyzed with MetaXpress Analysis (Molecular Devices). The percent of Miro1 reduction was calculated as % Positive Cells for Miro1/Median=[(Positive Cells Miro Integrated Intensity/All Nuclear Miro Integrated Intensity)−Plate Median of this same calculation (Median % Positive Miro/Nuclear Miro in Plate Data)]/[Plate Median of this same calculation (Median % Positive Miro/Nuclear Miro in Plate Data)]. Positive cells are cells having Miro1 immunostaining. […] Negative value indicates a reduction in Miro. Positive value indicates an increase in Miro. The screening and data analysis were carried out together with Stanford University High-Throughput Bioscience Centers (HTBC).
Drugs from the NIH Clinical collection library were screened at a defined 10 μM concentration with 4 biological repeats for each drug (377 compounds). […] These compounds are ranked in the order of the degree of Miro1 reduction (Table 1A). 12 small molecules that reduced Miro1 protein levels in 3 out of 4 biological repeats were ranked in order of degree of Miro1 reduction. […] These hits were ranked in order of the degree of Miro1 reduction, with the six compounds found to reduce Miro1 protein levels by 20% or more shown (Table 1A). Moreover, an additional 12 small molecules reduced Miro1 protein levels in 3 out of 4 biological repeats (Table 1B). We next screened the Biomol FDA library with 5-fold doses (1.25-2.5-5-10-20 μM) and in duplicate. […] We ranked these 3 hits in the order of the degree of Miro1 reduction (Table 1A). Taken together, we identified 14 actives (2.5% primary hit rate) and 12 potential actives.
With `COC(=O)C1=C(C)NC(C)=C(C(=O)OC2CCCN(Cc3ccccc3)C2)C1c1cccc([N+](=O)[O-])c1` (stereo not drawn) [Benidipine HCl], the “% Miro1 decrease in screen” value is recorded as “A (Reduction of Miro levels by >30%)”.
On the same count and under the same terms, to `CN(C)CCC[C@@]1(c2ccc(F)cc2)OCc2cc(C#N)ccc21` [Escitalopram Oxalate] belongs “A (Reduction of Miro levels by >30%)”; to `C[N+]1(C)CCC(OC(=O)C(O)(c2ccccc2)C2CCCC2)C1` (stereo not drawn) [Glycopyrrolate], “B (Reduction of Miro levels by >20% and less than 30%)”.
Same read-out and setting: to `CNC(=O)Oc1ccc2c(c1)[C@]1(C)CCN(C)[C@@H]1N2C` [Physostigmine] belongs “B (Reduction of Miro levels by >20% and less than 30%)”; to `Cn1nnc2c(C(N)=O)ncn2c1=O` [Temozolomide], “A (Reduction of Miro levels by >30%)”; to `COc1ccc(/C=C/C(=O)Nc2ccccc2C(=O)O)cc1OC` [Tranilast], “B (Reduction of Miro levels by >20% and less than 30%)”.

The same data set, now with this note: Table 1B additional small molecules (3 out of 4 biological repeats); 10 μM tested; following FCCP treatment.
Consider `CC(C(=O)O)c1ccc(-c2ccccc2)c(F)c1` (stereo not drawn) [Flurbiprofen], for which the “% Miro1 decrease in screen” value was “B (Reduction of Miro levels by >20% and less than 30%)”.
Same read-out and setting: in the case of `CC(C(=O)O)c1ccc(CC2CCCC2=O)cc1` (stereo not drawn) [Loxoprofen] it was “B (Reduction of Miro levels by >20% and less than 30%)”.
The same measure, in the same setting: in the case of `COc1ccc2[nH]c([S+]([O-])Cc3ncc(C)c(OC)c3C)nc2c1` (stereo not drawn) [Omeprazole] it was “C (Reduction of Miro by >10% and less than 20%)”.
Same read-out and setting: to `C[C@H]1COc2c(C3(N)CC3)c(F)cc3c(=O)c(C(=O)O)cn1c23` [Pazufloxacin] belongs “B (Reduction of Miro levels by >20% and less than 30%)”.

Another data set concerns Miro1. Put plainly: Hit confirmation: immunocytochemistry and confocal microscopy of Miro1 in sporadic PD fibroblasts. It is filed as cell-based, human. To be noted: DMSO instead of FCCP, with compound at highest screening concentration; sporadic PD line; at least 4 biological replicates. How it is done: Fibroblast cells were plated in 6-well plates (VWR, 10861-554) on coverslips (Fisher scientific, 22-293232) at 400.000 cells/well and plates were incubated at 37° C., 5% CO2 for 24 hrs. Next, newly ordered chemical compounds dissolved in DMSO were added at defined concentrations and plates were incubated at 37° C./5% CO2 for 10 hrs. Then, FCCP (final concentration of 20 μM, Carbonyl cyanide 4-(trifluoromethoxy)phenylhydrazone, Sigma-Aldrich, C2920) in cell media was added to defined wells and plates were incubated at 37° C., 5% CO2 for another 14 hrs. Cells were fixed with ice-cold 90% methanol (Fisher, 482332) for 20 min at −20° C., incubated with blocking buffer (10% Normal Goat Serum (NGS) (ThermoFisher, 50062Z), 0.5% BSA (ThermoFisher, BP1600), 0.2% Triton X-100 (ThermoFisher, T8787)) at 25° C. for 15 min and incubated with anti-Miro1 (Sigma-Aldrich, HPA0101687) at 1:100 in blocking buffer O/N at 4° C. Samples were washed three times with 1×PBS (ThermoFisher, 10010-049), incubated with goat anti-Rabbit IgG (H+L) Cross-Adsorbed, Alexa Fluor 488 (ThermoFisher, A11008) at 1:500 in blocking buffer at 25° C. for 2 hrs and washed again three times with lx PBS, and finally samples were mounted with ProLong™ Glass Antifade Mountant with NucBlue™ Stain (hard-setting, Thermofisher, P36983) on glass slides and allowed to cure O/N. Samples were imaged at 25° C. with a 20×/N.A.0.60 oil Plan-Apochromat objective on a Leica SPE laser scanning confocal microscope (JH Technologies), with identical imaging parameters among different genotypes. Images were processed with ImageJ (Ver. 1.48, NIH) using the Intensity Ratio Nuclei Cytoplasm Tool (http://dev.mri.cnrs.fr/projects/imagej-macros/wiki/Intensity_Ratio_Nuclei_Cytoplasm_Tool), and average cytoplasmic intensity (the average intensity in the cytoplasm area) was plotted.
To reduce experimental bias such as the freshness the compounds, experimental reagents, and imaging devices, the 14 hits identified in the high-throughput screening were verified individually . The 14 compounds were tested at their highest screening concentrations with at least 4 biological replicates, using the same sporadic PD line. […] Samples were imaged with identical settings under the confocal microscope, and negative controls without primary antibodies yielded no signals under the imaging settings.
For the compound `COC(=O)C1=C(C)NC(C)=C(C(=O)OC2CCCN(Cc3ccccc3)C2)C1c1cccc([N+](=O)[O-])c1` (stereo not drawn) [Benidipine HCl], the “Basal Miro1 levels (without mitochondrial depolarization)” value is listed as “no impact on basal Miro1 levels”.
On the same count and under the same terms, to `CN(C)CCC[C@@]1(c2ccc(F)cc2)OCc2cc(C#N)ccc21` [Escitalopram Oxalate] belongs “already reduced Miro1 protein at baseline”; to `CN(CCCN1c2ccccc2CCc2ccccc21)CC(=O)c1ccc(Cl)cc1` [Lofepramine], “already reduced Miro1 protein at baseline”.
The same measure, in the same setting: in the case of `CC[C@H](C)C(=O)O[C@H]1C[C@H](O)C=C2C=C[C@H](C)[C@H](CC[C@@H](O)C[C@@H](O)CC(=O)O)[C@H]21` [Pravastatin Sodium] it was “already reduced Miro1 protein at baseline”.

A further data set deals with Fibroblast cells. Put plainly: Toxicity observed in hit confirmation. It is filed as cell-based, human. To be noted: highest screening concentration, sporadic PD fibroblast line. Here is the method:
Fibroblast cells were plated in 6-well plates (VWR, 10861-554) on coverslips (Fisher scientific, 22-293232) at 400.000 cells/well and plates were incubated at 37° C., 5% CO2 for 24 hrs. Next, newly ordered chemical compounds dissolved in DMSO were added at defined concentrations and plates were incubated at 37° C./5% CO2 for 10 hrs. Then, FCCP (final concentration of 20 μM, Carbonyl cyanide 4-(trifluoromethoxy)phenylhydrazone, Sigma-Aldrich, C2920) in cell media was added to defined wells and plates were incubated at 37° C., 5% CO2 for another 14 hrs. Cells were fixed with ice-cold 90% methanol (Fisher, 482332) for 20 min at −20° C., incubated with blocking buffer (10% Normal Goat Serum (NGS) (ThermoFisher, 50062Z), 0.5% BSA (ThermoFisher, BP1600), 0.2% Triton X-100 (ThermoFisher, T8787)) at 25° C. for 15 min and incubated with anti-Miro1 (Sigma-Aldrich, HPA0101687) at 1:100 in blocking buffer O/N at 4° C. […]
`O=C(O)CCC(=O)c1ccc(-c2ccccc2)cc1` [Fenbufen]: the Toxicity result is “appeared toxic”.
